Assay results reported in US10563263B2, “Genetic polymorphisms associated with statin response and cardiovascular diseases, methods of detection and uses thereof” (CELERA CORPORATION, priority 2010, dated 2020).

System: CVD (CHD or stroke)
Test: WOSCOPS: SNP by pravastatin treatment interaction, logistic regression (synergy index), CVD endpoint
Assay type: in vivo, human
Conditions: for OR (SNP x pravastatin treatment interaction): Imputed, WOSCOPS pravastatin vs placebo; for OR: WOSCOPS
Text: CARE was a secondary prevention trial and WOSCOPS was a primary prevention trial.
The CHD endpoint was defined in the analyses herein of CARE as a composite endpoint of fatal CHD, definite non-fatal MI, or revascularization, and was defined in the analyses herein of WOSCOPS as a composite endpoint of death from CHD, nonfatal MI, or revascularization. In both the CARE and WOSCOPS analyses herein, the CVD endpoint was defined as a composite endpoint of CHD or stroke. […] Revascularization, which can include percutaneous transluminal coronary angioplasty (PTCA), stent placement, and coronary artery bypass graft (CABG), are medical interventions that indicate the presence of CHD.
Cohort and case-only study designs were used to identify SNPs associated with response to statin treatment.
For each SNP, a logistic regression model having treatment status as the dependent variable and SNP as the independent predictor variable was performed, with terms for age, sex and race included in the model as covariates. The anti-log of the regression coefficient corresponding to the SNP is an estimate of the synergy index (SI) (Davis et al., “Imputing gene-treatment interactions when the genotype distribution is unknown using case-only and putative placebo analyses-a new method for the Genetics of Hypertension Associated Treatment (GenHAT) study”, Statistics in Medicine 23: (2004), pages 2413-2427). The SI is a ratio of odds ratios: for example in the CARE and WOSCOPS studies, the SI represents the factor by which the odds-ratio of statin treatment, compared with placebo, among major homozygous individuals is multiplied by in order to obtain the odds-ratio of treatment vs. placebo among heterozygous individuals; and multiplied by a second time to obtain the odds-ratio of treatment vs. placebo in minor homozygous individuals. […] In a randomized clinical trial, genotype and treatment are independent by design.

Q: For `CC[C@H](C)C(=O)O[C@H]1C[C@H](O)C=C2C=C[C@H](C)[C@H](CC[C@@H](O)C[C@@H](O)CC(=O)O)[C@H]21` [Pravastatin, pravastatin], which “OR (SNP x pravastatin treatment interaction)” value (SNP rs12820589, allele A1=G, model DOM) is on record?
A: Its value is 1.936.

Q: And the “OR (SNP x pravastatin treatment interaction)” value (SNP rs12831292, allele A1=G, model ADD)?
A: The value was 0.6841.

Q: What about the “OR (SNP x pravastatin treatment interaction)” value (SNP rs12831292, allele A1=G, model DOM) of the same compound?
A: The value was 0.62.

Q: And the “OR (SNP x pravastatin treatment interaction)” value (SNP rs13012636, allele A1=G, model REC)?
A: Its value is 1.901.

Q: And the “OR (SNP x pravastatin treatment interaction)” value (SNP rs13038146, allele A1=C, model ADD)?
A: Its value is 1.407.

Q: And the “OR (SNP x pravastatin treatment interaction)” value (SNP rs13038146, allele A1=C, model REC)?
A: Its value is 1.414.

Q: What about the “OR (SNP x pravastatin treatment interaction)” value (SNP rs13089860, allele A1=A, model DOM) of the same compound?
A: The value was 0.6221.

Q: And the “OR (SNP x pravastatin treatment interaction)” value (SNP rs13102419, allele A1=T, model REC)?
A: The value was 1.668.

Q: And the “OR (synergy index), WOSCOPS, Prava vs Placebo” value (SNP rs13121569 (A1 G, A2 A), dom model, CVD endpoint, Caseonly)?
A: The value was 0.78.

Q: And the “OR (SNP x pravastatin treatment interaction)” value (SNP rs13194907, allele A1=A, model ADD)?
A: The value was 1.964.

Q: What about the “OR (SNP x pravastatin treatment interaction)” value (SNP rs13194907, allele A1=A, model DOM) of the same compound?
A: Its value is 2.136.

Q: And the “OR (SNP x pravastatin treatment interaction)” value (SNP rs13195745, allele A1=A, model ADD)?
A: Its value is 1.964.

Q: What about the “OR (SNP x pravastatin treatment interaction)” value (SNP rs13195745, allele A1=A, model DOM) of the same compound?
A: The value was 2.136.

Q: And the “OR (SNP x pravastatin treatment interaction)” value (SNP rs13265054, allele A1=T, model DOM)?
A: The value was 0.6754.

Q: And the “OR (SNP x pravastatin treatment interaction)” value (SNP rs13282131, allele A1=C, model ADD)?
A: The value was 1.415.

Q: What about the “OR (SNP x pravastatin treatment interaction)” value (SNP rs13282131, allele A1=C, model REC) of the same compound?
A: The value was 1.595.

Q: What about the “OR (SNP x pravastatin treatment interaction)” value (SNP rs13387284, allele A1=A, model DOM) of the same compound?
A: Its value is 0.5278.

Q: What about the “OR (SNP x pravastatin treatment interaction)” value (SNP rs13401462, allele A1=C, model DOM) of the same compound?
A: Its value is 2.137.

Q: What about the “OR (SNP x pravastatin treatment interaction)” value (SNP rs13409045, allele A1=T, model ADD) of the same compound?
A: The value was 0.6931.

Q: And the OR (marker rs208025, source caseonly, pravastatin vs placebo)?
A: The OR was 1.52.

Q: What about the OR (marker rs478859, source caseonly, pravastatin vs placebo) of the same compound?
A: Its OR is 1.33.

Q: And the OR (marker rs623400, source caseonly, pravastatin vs placebo)?
A: The OR was 0.62.

Q: And the OR (marker rs675163, source caseonly, pravastatin vs placebo)?
A: Its OR is 0.71.

Q: And the OR (marker rs1536506, source caseonly, pravastatin vs placebo)?
A: Its OR is 1.43.

Q: And the OR (marker rs1866386, source caseonly, pravastatin vs placebo)?
A: The OR was 0.81.

Q: What about the OR (marker rs2869680, source caseonly, pravastatin vs placebo) of the same compound?
A: The OR was 0.70.

Q: What about the OR (marker rs2880563, source caseonly, pravastatin vs placebo) of the same compound?
A: The OR was 1.51.

Q: And the OR (marker rs4251580, source caseonly, pravastatin vs placebo)?
A: The OR was 0.55.

Q: And the OR (marker rs4689078, source caseonly, pravastatin vs placebo)?
A: The OR was 1.45.

Q: And the OR (marker rs5764592, source caseonly, pravastatin vs placebo)?
A: Its OR is 1.87.

Q: And the OR (marker rs6040760, source caseonly, pravastatin vs placebo)?
A: The OR was 1.23.

Q: What about the OR (marker rs7623808, source caseonly, pravastatin vs placebo) of the same compound?
A: Its OR is 4.22.

Q: And the OR (marker rs7915250, source caseonly, pravastatin vs placebo)?
A: Its OR is 0.81.

Q: And the OR (marker rs10106852, source caseonly, pravastatin vs placebo)?
A: The OR was 1.56.

Q: What about the OR (marker rs10460737, source caseonly, pravastatin vs placebo) of the same compound?
A: The OR was 0.10.

Q: And the OR (marker rs10817479, source caseonly, pravastatin vs placebo)?
A: Its OR is 1.37.

Q: What about the OR (marker rs12286877, source caseonly, pravastatin vs placebo) of the same compound?
A: The OR was 2.30.

Q: What about the OR (marker rs12608167, source caseonly, pravastatin vs placebo) of the same compound?
A: Its OR is 0.66.

Q: And the OR (marker rs17310169, source caseonly, pravastatin vs placebo)?
A: Its OR is 0.81.

Q: What about the OR (marker rs77638540, source caseonly, pravastatin vs placebo) of the same compound?
A: The OR was 0.68.

Q: And the OR (rs198461 allele C DOM Imputed)?
A: The OR was 0.4755.

Q: What about the OR (rs208757 allele G ADD Imputed) of the same compound?
A: The OR was 1.353.

Q: What about the OR (rs208757 allele G DOM Imputed) of the same compound?
A: The OR was 1.453.

Q: What about the OR (rs331555, add, Caseonly, CVD, pravastatin vs placebo) of the same compound?
A: Its OR is 0.77.

Q: And the OR (rs1076733, dom, Caseonly, CVD, pravastatin vs placebo)?
A: Its OR is 0.62.

Q: And the OR (rs1182878, add, Caseonly, CVD, pravastatin vs placebo)?
A: The OR was 0.75.

Q: And the OR (rs1474396, dom, Caseonly, CVD, pravastatin vs placebo)?
A: The OR was 1.73.

Q: And the OR (rs1782328 allele A ADD Imputed)?
A: The OR was 0.5789.

Q: What about the OR (rs1796337 allele T DOM Imputed) of the same compound?
A: The OR was 0.5422.

Q: And the OR (rs1798083 allele C DOM Imputed)?
A: Its OR is 0.4733.

Q: And the OR (rs1798085 allele T DOM Imputed)?
A: Its OR is 0.4727.

Q: And the OR (rs1798086 allele T DOM Imputed)?
A: Its OR is 0.4689.

Q: What about the OR (rs1798089 allele C REC Imputed) of the same compound?
A: The OR was 1.806.

Q: And the OR (rs1798090 allele C REC Imputed)?
A: Its OR is 1.806.

Q: What about the OR (rs1832222 allele G DOM Imputed) of the same compound?
A: The OR was 1.351.

Q: What about the OR (rs1838104 allele A ADD Imputed) of the same compound?
A: Its OR is 0.6393.

Q: And the OR (rs1868616 allele G ADD Imputed)?
A: The OR was 0.7123.

Q: And the OR (rs1874313 allele A DOM Imputed)?
A: Its OR is 0.6182.
